Laboratory results as given in patent US12084459B2, “2-(4-{1-[6-(4-isopropyl-phenyl)-imidazo[2,1-b][1,3,4]thiadiazol-2-yl]-piperidin-4-ylmethyl}-piperazin-1-yl)-ethanol and use thereof” (Urifer Ltd., priority 2020, dated 2024).

Experiments:
Type in all cases: cell-based
[1] = test system: metastatic Triple negative MDA-MB-231 Breast cancer cells; assay: viability / killing of MDA-MB-231 cells; conditions: E266 versus E260; compound (I) as tartarate salt in 0.5% Tween-80; FIG. 5
Experimental: (§1) The compound (I), as tartarate salt was dissolved in 0.5% Tween-80 to affect the viability of several cell lines as follows.
(§2) The effect of the compound (I) (E266) on the growth profile of cancer cells which express Fer was tested. The cells that were tested were: the metastatic colon cancer cell line—SW620, the metastatic pancreatic ductal-adenocarcinoma SU.86.86 cancer cell-line—SU.86.86, the metastatic Triple Negative breast cancer cell line—MDA-MB-231, and the metastatic prostate cancer cell-line—PC3. The effect of the compound (I) (E266) on FS11 cells, a non malignant fibroblastic cell line, was also studied.

[2] = test system: metastatic adenocarcinoma PC3 prostate Cancer cells; assay: viability / killing of PC3 cells; conditions: E266 versus E260; compound (I) as tartarate salt in 0.5% Tween-80; FIG. 6
Experimental: as §1, §2

[3] = test system: metastatic colon cancer SW620 cells; assay: viability / killing of SW620 cells; conditions: E266 versus E260; compound (I) as tartarate salt in 0.5% Tween-80; FIG. 3
Experimental: as §1, §2

[4] = test system: metastatic pancreatic ductal adenocarcinoma Su.86.86 cancer cells; assay: viability / killing of Su.86.86 cells; conditions: E266 versus E260; compound (I) as tartarate salt in 0.5% Tween-80; FIG. 4
Experimental: as §1, §2

CC(C)c1ccc(-c2cn3nc(N4CCC(CN5CCN(CCO)CC5)CC4)sc3n2)cc1 [Compound E266, 2-(4-{1-[6-(4-isopropyl-phenyl)-imidazo[2,1-b][1,3,4]thiadiazol-2-yl]-piperidin-4-ylmethyl}-piperazin-1-yl)-ethanol]
comparable activity: killing metastatic Triple negative MDA-MB-231 Breast cancer cells [1] | killing metastatic adenocarcinoma PC3 prostate Cancer cells [2] | killing metastatic colon cancer SW620 cells [3] | killing metastatic pancreatic ductal adenocarcinoma Su.86.86 cancer cells [4]
